Data reported in PubChem BioAssay (NCI).
Where “and” joins values, the source holds several entries; their conditions need not be identical. Identical values can stand only once.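 Results reflect a 48-hour exposure of cells in 96-well plates to compound at five concentrations. At the GI50, growth is halved. TGI is the concentration that stops growth completely.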

What was measured:
Assay in all cases: inhibition of tumour cell growth, NCI panel, 48 h
SN12C renal = tested on: SN12C renal
HL-60(TB) leukemia = tested on: HL-60(TB) leukemia
HT29 colon = tested on: HT29 colon
SNB-19 CNS = tested on: SNB-19 CNS
CCRF-CEM leukemia = tested on: CCRF-CEM leukemia
OVCAR-4 ovarian = tested on: OVCAR-4 ovarian
RPMI-8226 leukemia = tested on: RPMI-8226 leukemia
K-562 leukemia = tested on: K-562 leukemia
MCF7 breast = tested on: MCF7 breast
MOLT-4 leukemia = tested on: MOLT-4 leukemia

Row | Structure (SMILES) | GI50 (SN12C renal) [µM] | TGI (SN12C renal) [µM] | GI50 (HL-60(TB) leukemia) [µM] | TGI (HL-60(TB) leukemia) [µM] | GI50 (HT29 colon) [µM] | TGI (HT29 colon) [µM] | GI50 (SNB-19 CNS) [µM] | TGI (SNB-19 CNS) [µM] | GI50 (CCRF-CEM leukemia) | TGI (CCRF-CEM leukemia) [µM] | GI50 (OVCAR-4 ovarian) [µM] | TGI (OVCAR-4 ovarian) [µM] | TGI (RPMI-8226 leukemia) [µM] | TGI (K-562 leukemia) [µM] | TGI (MCF7 breast) [µM] | TGI (MOLT-4 leukemia) [µM] | GI50 (K-562 leukemia) | GI50 (MCF7 breast) [µM] | GI50 (MOLT-4 leukemia) [µM] | GI50 (RPMI-8226 leukemia) [µM]
1 | CCNCCNc1cc(-c2cccc(C(F)(F)F)c2)c(C#N)c2nc3ccccc3n12 | 1.74 | 3.37 | 2.23 | 4.21 | 1.24 | 2.65 | 1.99 | 3.97 | 0.29 µM | 0.798 | 1.6 | 3.24 | – | – | – | – | – | – | – | –
2 | NC(=O)NC(=O)C1CCCCC1C(=O)O (stereo not drawn) | – | > 100 | – | > 100 | – | > 100 | – | > 100 | – | > 100 | – | > 100 | > 100 | > 100 | > 100 | – | – | – | – | –
3 | Cc1cc(C)c2[s+]snc2c1 | – | > 100 | – | 44.7 | – | > 100 | – | > 100 | – | > 100 | – | > 100 | – | > 100 | – | > 100 | – | – | – | –
4 | C=C(C)[C@@H]1CC[C@]2(C)[C@H](C=CC3=C4C[C@@](C)(CO)CC[C@]4(C)CC[C@]32C)[C@@]1(C)CCCN | 1.64 | 3.15 | – | – | 1.63 | 3.28 | 1.75 | 3.17 | 2.12 µM | 5.56 | 1.53 | 3.09 | – | 5.04 | 3.4 | – | 1.8 µM | 1.6 | – | –
5 | OC1C2C=CCC1CCC2 (stereo not drawn) | – | > 100 | – | > 100 | – | > 100 | – | > 100 | – | > 100 | – | > 100 | > 100 | > 100 | – | > 100 | – | – | – | –
6 | CCOC(=O)C1(Cc2ccc3ccccc3c2)CCCCCN1 (stereo not drawn) | – | > 100 | – | 52 | – | 26.9 | – | > 100 | – | – | – | > 100 | 27.6 | 68.7 | – | 90.7 | – | – | – | –
7 | O=C(Nc1ccc(S(=O)(=O)NC2CCCCCC2)cc1)C(c1ccccc1)S(=O)(=O)c1ccc(F)cc1 (stereo not drawn) | 0.371 | 1.81 | 0.357 | 2.51 | 0.214 | 1.56 | 0.622 | 37.2 | 0.577 µM | > 100 | 0.444 | 4.16 | – | – | 1.61 | > 100 | – | 0.124 | 0.432 | –
8 | CS[C@@]1(C(=O)Nc2ccc3[nH]nc(-c4ccc(OC(C)C)nc4)c3c2)CCN(CC(=O)N2CC=C(c3ccc(-c4ncn(C)n4)cc3)CC2)C1 | > 100 | > 100 | 0.0551 | > 100 | 0.0368 | > 100 | > 100 | > 100 | 12.5 µM | > 100 | – | – | > 100 | > 100 | > 100 | > 100 | 2.24 µM | 13.9 | 5.26 | 2.21
9 | COc1cnc2c(c1)C(=O)c1c-2n(CCCN2CCN(CCO)CC2)c(=O)c2cc([N+](=O)[O-])ccc12 | – | – | 1.69 | 5.27 | 1.24 | 2.63 | 2.38 | 12.4 | 0.494 µM | > 100 | 1.79 | 4.42 | 6.75 | – | 1.59 | 4.45 | – | 0.142 | 0.552 | 1.57
10 | Cc1c(N2C(=O)/C(=C\c3ccc(N(C)C)cc3)N=C2c2ccccc2)c(=O)n(-c2ccccc2)n1C | > 100 | > 100 | 40.2 | > 100 | 49.5 | > 100 | > 100 | > 100 | – | – | 39.9 | > 100 | > 92 | > 100 | > 100 | > 100 | 40.9 µM | 25.7 | 7.85 | 25.6
11 | CCOC(=O)CNC(=O)C(CSC(=O)N(C)O)NC(=O)CCC(N)C(=O)O (stereo not drawn) | > 2000 | > 2000 | > 2000 | > 2000 | > 2000 | – | > 2000 | > 2000 | > 2000 µM | – | > 2000 | > 2000 | > 2000 | > 2000 | – | > 2000 | > 2000 µM | – | > 2000 | > 2000
12 | Cc1sc(/N=C2/NC(=O)CS2)nc1-c1nc(/N=C2/NC(=O)CS2)sc1C | > 50 | > 50 | > 50 | > 50 | 32.2 | > 50 | > 50 | > 50 | – | – | – | – | 49.1 | > 50 | > 50 | > 50 | 26.8 µM | 19.7 | 19.9 | 9.59
13 | O=P1(O)c2ccccc2CS(=O)(=O)Cc2ccccc21 | – | > 100 | – | > 100 | – | > 100 | – | > 100 | – | > 100 | – | > 100 | – | > 100 | > 100 | > 100 | – | – | – | –
14 | Oc1[nH]c2ccc(Cl)cc2c1/C=c1/ccc2c(c1)N=C(c1cc(F)cc(F)c1)N=2 | 5.41 | > 100 | 3.39 | 7.23 | – | – | > 100 | > 100 | – | – | 2.77 | > 100 | > 100 | > 100 | – | > 100 | 3.12 µM | – | 3.32 | 3.31
15 | COc1cccc(Nc2nccc(Nc3ccc4[nH]ncc4c3)n2)c1 | – | – | 1.53 | 3.56 | 1.52 | 3.45 | – | – | 0.901 µM | 4.56 | 1.46 | 4.03 | 4.19 | 3.89 | 3.11 | 2.83 | 1.3 µM | 1.26 | 0.525 | 1.36
16 | O=c1[nH]c2c(O)cccc2c2cc3c(c(O)c12)OCO3 | – | 92.3 | – | 31.1 | – | 50.6 | – | 70.5 | – | 64.3 | – | 43.6 | 92 | > 100 | – | > 100 | – | – | – | –
17 | CC(C)[O-].CC(C)[O-].[O-]c1cccc2cccnc12.[O-]c1cccc2cccnc12.[Ti+4] | – | – | 2.24 | – | – | – | 61.6 | > 100 | 1.77 µM and 3.32 µM | > 100 | – | – | – | > 100 | – | – | 3.04 µM and 3.37 µM | – | – | –
18 | Cc1cc2c(cc1C)[n+]([O-])c(-c1c(Cl)cccc1Cl)c(N)[n+]2[O-] | – | > 100 | – | > 100 | – | > 100 | – | > 100 | – | – | – | > 100 | > 100 | > 100 | – | > 100 | – | – | – | –
